Source: PMC6179041, “The insight of in vitro and in silico studies on cholinesterase inhibitors from the roots of Cimicifuga dahurica (Turcz.) Maxim” (Journal of Enzyme Inhibition and Medicinal Chemistry, 2018)
Entries after “also recorded” stand apart in the source; their conditions may differ. Where two headings read alike, the source gives them in different places.

Tests used:
AChE = molecular target: T1, AChE (Electrophorus electricus, UniProt O42275); assay: biochemical; assay type: biochemical; settings: for inhibition at 100 µM: read-out: AChE inhibitory activity at 100 μM (%)
T1 construct: purchased Sigma-Aldrich C3389

BuChE = BuChE (Equus caballus, UniProt P81908); assay: biochemical; assay type: biochemical; settings: for inhibition at 100 µM: read-out: BuChE inhibitory activity at 100 μM (%); for Binding mode (BuChE): Lineweaver-Burk plots
[1] = 100 μM compound, mean ± SEM, tested three times
[2] = mean ± SEM, tested three times, read-out: AChE IC50
[3] = mean ± SEM, tested three times, read-out: BuChE IC50
[4] = secondary replot, read-out: Ki (μM) on BuChE

T1 sequence (O42275 24-633): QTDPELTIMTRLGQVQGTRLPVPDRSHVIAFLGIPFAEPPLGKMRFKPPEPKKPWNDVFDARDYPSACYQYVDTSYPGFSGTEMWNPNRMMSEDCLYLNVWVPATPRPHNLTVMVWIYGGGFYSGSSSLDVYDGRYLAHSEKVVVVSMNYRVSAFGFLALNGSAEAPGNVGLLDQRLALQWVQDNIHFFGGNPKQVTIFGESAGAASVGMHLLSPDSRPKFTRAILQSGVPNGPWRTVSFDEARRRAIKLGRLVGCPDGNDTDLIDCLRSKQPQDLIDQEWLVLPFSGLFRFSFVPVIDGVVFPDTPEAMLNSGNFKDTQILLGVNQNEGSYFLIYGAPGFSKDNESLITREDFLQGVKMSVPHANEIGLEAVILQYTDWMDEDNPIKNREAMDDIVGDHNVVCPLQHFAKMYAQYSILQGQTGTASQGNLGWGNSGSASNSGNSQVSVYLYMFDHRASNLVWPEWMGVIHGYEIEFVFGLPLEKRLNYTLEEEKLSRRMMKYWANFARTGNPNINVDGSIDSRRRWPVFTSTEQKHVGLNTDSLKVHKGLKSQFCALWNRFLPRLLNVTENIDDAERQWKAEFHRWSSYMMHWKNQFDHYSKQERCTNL
BuChE, sequence (P81908 whole entry): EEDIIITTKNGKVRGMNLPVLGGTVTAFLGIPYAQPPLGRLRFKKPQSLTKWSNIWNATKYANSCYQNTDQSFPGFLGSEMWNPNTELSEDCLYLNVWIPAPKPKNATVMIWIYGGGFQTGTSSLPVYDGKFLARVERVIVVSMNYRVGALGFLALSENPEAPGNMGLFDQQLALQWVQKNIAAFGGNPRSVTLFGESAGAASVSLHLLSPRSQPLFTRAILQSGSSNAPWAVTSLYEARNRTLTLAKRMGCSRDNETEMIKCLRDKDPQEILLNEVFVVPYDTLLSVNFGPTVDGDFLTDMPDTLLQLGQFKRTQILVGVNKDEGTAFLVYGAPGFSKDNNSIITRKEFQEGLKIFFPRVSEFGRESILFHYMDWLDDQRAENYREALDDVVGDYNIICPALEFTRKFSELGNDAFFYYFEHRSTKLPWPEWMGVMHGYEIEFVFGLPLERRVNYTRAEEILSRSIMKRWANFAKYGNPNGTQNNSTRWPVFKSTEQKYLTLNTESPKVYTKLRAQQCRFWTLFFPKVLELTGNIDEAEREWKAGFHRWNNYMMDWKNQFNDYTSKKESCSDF

| Compound | inhibition at 100 µM (AChE) | IC50 (BuChE) | inhibition at 100 µM (BuChE) | further results |
| --- | --- | --- | --- | --- |
| CC1CC2OC3(OC2C(C)(C)O)C1C1(C)CCC24CC25CCC(OC2OCC(O)C(O)C2O)C(C)(C)C5CC=C4C1(C)C3O [Compound 16, 24-epi-7,8-didehydrocimigenol 3-O-β-D-xylopyranoside] | 19 ± 2.5% | 31 ± 5.5 µM | 62 ± 0.8% |  |
| CC(=O)OC(C)(C)C1OC23OC1CC(C)C2C1(C)CCC24CC25CCC(OC2OCC(O)C(O)C2O)C(C)(C)C5CC=C4C1(C)C3O [Compound 14, 25-O-acetyl-7,8-didehydrocimigenol 3-O-β-D-xylopyranoside] | 24.9 ± 6.2% | 22.6 ± 0.4 µM | 55 ± 0.7% | Ki (BuChE): 10.7 ± 1.3 µM; Binding mode (BuChE) (BuChE): competing with substrate; also recorded: Competitive type (BuChE) |
| C=C(C)[C@H]1O[C@@]23O[C@@H]1C[C@@H](C)[C@@H]2[C@@]1(C)CC[C@@]24C[C@@]25CC[C@H](O)C(C)(C)[C@@H]5CC=C4[C@]1(C)[C@H]3O [Compound 13, 25-anhydrocimigenol] | 42.8 ± 0.8% |  | 44.9 ± 1.1% |  |
| CC(=O)O[C@@H]1C[C@@]23C[C@@]24CC[C@H](O)C(C)(C)[C@@H]4CC=C3[C@]2(C)C[C@@H]3O[C@]4(C[C@@H](C)[C@@H]3[C@@]12C)O[C@H](O)[C@@]1(C)O[C@@H]41 [Compound 7, 25-triepoxy-12β-acetoxy-3β,26-dihydroxy-9,19-cyclolanost-7-ene] | 52 ± 0.1% |  | 41 ± 0.1% | IC50 (AChE): 92.1 ± 2.2 µM |
| C=C(C)C1OC23OC1CC(C)C2C1(C)CCC24CC25CCC(OC2OCC(O)C(O)C2O)C(C)(C)C5CC=C4C1(C)C3O [Compound 19, 7,8-didehydro-25-anhydrocimigenol-3-O-β-D-xylopyranoside] | 21.5 ± 1.7% |  | 38.5 ± 0.1% |  |
| CC(=O)OC(C)(C)[C@H]1O[C@@]23O[C@@H]1C[C@@H](C)[C@@H]2[C@@]1(C)CC[C@@]24C[C@@]25CC[C@H](O)C(C)(C)[C@@H]5CC[C@H]4[C@]1(C)[C@H]3O [Compound 11, 25-O-acetylcimigenol] | 15.8 ± 4.3% |  | 14 ± 2.6% |  |
| CC(=O)OC1C(OC2CCC34CC35CCC3(C)C6C(C)CC7OC6(OC7C(C)(C)O)C(O)C3(C)C5=CCC4C2(C)C)OCC(O)C1O (stereo not shown) [Compound 18, cimiricaside A] | 23.1 ± 6.8% | 51 ± 0.5 µM | 54.4 ± 1.3% |  |
| CC(C)=CC=C1C(=O)N(C)c2ccccc21 [Compound 3, (E)-3‐(3′-methyl-2′-butenylidene)-1-methyl-2-indolinone] |  |  |  | inhibition at 100 µM (AChE; [1]): 53.8 ± 0.1%; IC50 (AChE; [2]): 95.8 ± 5.1 µM; inhibition at 100 µM (BuChE; [1]): 88.7 ± 1.3%; Binding mode (BuChE) (BuChE): noncompetitive mode; also recorded: Non-competitive type (BuChE); IC50 (BuChE; [3]): 13.8 ± 1.2 µM; Ki (BuChE; [4]): 4.9 ± 2.1 µM |
| CC(C)=CC=C1C(=O)Nc2ccccc21 [Compound 4, (E)-3‐(3′-methyl-2′-butenylidene)-2-indolinone] |  |  |  | inhibition at 100 µM (AChE; [1]): 61 ± 4.6%; IC50 (AChE; [2]): 48 ± 6.8 µM; inhibition at 100 µM (BuChE; [1]): 93.1 ± 0.6%; Binding mode (BuChE) (BuChE): noncompetitive mode; also recorded: Non-competitive type (BuChE); IC50 (BuChE; [3]): 6.5 ± 2.5 µM; Ki (BuChE; [4]): 3.5 ± 1.5 µM |
| CC1CC2OC3(OC2C(C)(C)O)C1C1(C)CCC24CC25CCC(O)C(C)(C)C5CC=C4C1(C)C3O (stereo not drawn) [Compound 10, 24-epi-7,8-didehydrocimigenol] | 31.8 ± 0.5% |  | 41.1 ± 2.2% |  |
| 3-O-β-D-xylopyranosyl-24S,25-dihydroxy-15-oxo-acta-(16R,23R)-16,23-monoxoside [Compound 17] |  |  |  | AChE inhibitory activity at 100 μM (%) (AChE; [1]): 47.1 ± 1.6%; BuChE inhibitory activity at 100 μM (%) (BuChE; [1]): 55.4 ± 0.8%; IC50 (BuChE; [3]): 84.1 ± 5.7 µM |
| C=C(C)C1OC23OC1CC(C)C2C1(C)CCC24CC25CCC(O)C(C)(C)C5CC=C4C1(C)C3O (stereo not shown) [Compound 9, 25-anhydro-7,8-didehydrocimigenol] | 48.6 ± 0.6% | 35.1 ± 1.2 µM | 51 ± 1.9% |  |
| CC(=O)OC(C)(C)C1OC23OC1CC(C)C2C1(C)CCC24CC25CCC(O)C(C)(C)C5CC=C4C1(C)C3O (stereo not shown) [Compound 8, 25-O-acetyl-7,8-didehydrocimigenol] | 55.4 ± 2.6% |  | 18 ± 0.4% | IC50 (AChE): 69.5 ± 1.2 µM |
| C[C@@H]1C[C@H]2O[C@]3(O[C@@H]2C(C)(C)O)[C@H]1[C@@]1(C)CC[C@@]24C[C@@]25CC[C@H](O)C(C)(C)[C@@H]5CC=C4[C@]1(C)[C@H]3O [Compound 5, 7,8-didehydrocimigenol] | 43.1 ± 5.6% | 60.9 ± 1.2 µM | 53.6 ± 0.9% |  |
| COC(=O)/C=C/c1ccc(O)c(OC)c1 [Compound 2, ferulic acid methyl ester] |  |  |  | inhibition at 100 µM (AChE; [1]): 58 ± 0.6%; IC50 (AChE; [2]): 52.4 ± 3.7 µM; inhibition at 100 µM (BuChE; [1]): 62.3 ± 0.3%; IC50 (BuChE; [3]): 37.1 ± 1.5 µM |
| CC(=O)O[C@@H]([C@H]1C[C@@H](C)[C@H]2[C@@](O)(O1)[C@H](O)[C@@]1(C)C3=CC[C@H]4C(C)(C)[C@@H](O)CC[C@@]45C[C@@]35CC[C@]21C)C(C)(C)O [Compound 6, 24-epi-24-O-acetyl-7,8-didehydroshengmanol] | 53.7 ± 1.6% | 90.9 ± 6 µM | 57.3 ± 0.3% | IC50 (AChE): 94.9 ± 3.5 µM |
| C=C(C)[C@H]1O[C@@]23O[C@@H]1C[C@@H](C)[C@@H]2[C@@]1(C)CC[C@@]24C[C@@]25CC[C@H](O[C@@H]2OC[C@@H](O)[C@H](O)[C@H]2O)C(C)(C)[C@@H]5CCC4[C@]1(C)[C@H]3O (stereo partly drawn) [Compound 15, 25-anhydrocimigenol-3-O-β-D-xylopyranoside] | 37.1 ± 0.5% | 33.3 ± 5 µM | 60.7 ± 0.6% |  |
| COc1ccc(/C=C/C(=O)OCC(=O)c2ccc(O)c(O)c2)cc1O [Compound 1, cimiciphenone] |  |  |  | inhibition at 100 µM (AChE; [1]): 65.4 ± 0.9%; Binding mode (AChE) (AChE; Lineweaver-Burk plots): competitive inhibitor; also recorded: Competitive type (AChE); IC50 (AChE; [2]): 16.7 ± 1.9 µM; Ki (AChE; secondary replot): 16.2 ± 0.9 µM; inhibition at 100 µM (BuChE; [1]): 13.6 ± 0.7% |
| CC(=O)O[C@H]([C@H]1C[C@@H](C)[C@H]2[C@@](O)(O1)[C@H](O)[C@@]1(C)C3=CC[C@H]4C(C)(C)[C@@H](O)CC[C@@]45C[C@@]35CC[C@]21C)C(C)(C)O [Compound 12, 24-epi-24-O-acetyl-7,8-didehydroshengmanol] | 28 ± 4% |  | 18.6 ± 0.3% |  |
